According to article PMC10812672, “Short Antimicrobial Peptide Derived from the Venom Gland Transcriptome of Pamphobeteus verdolaga Increases Gentamicin Susceptibility of Multidrug-Resistant Klebsiella pneumoniae” (Antibiotics, 2023):
Ends that are not written are not given here.

Tested on: multidrug-resistant (MDR) strain of K. pneumoniae, clinical isolate
Assay: microbe, parasite or virus in culture
Format: cell-based, Klebsiella pneumoniae
Details: MDR K. pneumoniae clinical isolate

WKKIKKFF-NH2 [PvAMP66]
MIC: 3.51 µg/mL
IC50 (95% confidence interval in parentheses, read-out: IC50): 15.8 µM
MIC (peptides 1.56–200 µM, antibiotics 1.56–100 µM, 24 h 37 °C): 25.00 µM
